Tests used:
[1] = system: NOD mice; test: Comparative immune toxicity assessment in NOD mice; assay type: in vivo
Description: The overt immune toxicity of OdDHL was investigated using the dose regime described above in Example 5 for the alleviation of insulitis or diabetes in NOD mice. […] Splenocytes from the mice were taken along the time course of treatment (3 times a week for 4 weeks) and were stained with anti-CD-3 (pan T-cell), anti-CD4 (helper T-cell), anti-CD8 (cytotoxic T-cell) and anti-CD19 (B cell) antibodies for 30 minutes on ice. Cells were washed twice in PBS/BSA and then fixed in 0.5% formaldehyde. Cell phenotypes were analysed on BD FACScan.

[2] = system: TNF-α production; conditions: Infection and Immunity, vol.66, no.1, January 1998; cited from earlier work
[3] = system: diabetes in NOD mice; test: Alleviation of diabetes in NOD mice (incidence of diabetes, Uristix); assay type: in vivo; conditions: above 6 mMol glucose/l = diabetes
Description: The ability of the lead compound (OdDHL) to alleviate diabetes in NOD mice was determined by treating the mice 3 times per week for 4 weeks at 30 mg/kg as above. DMSO and OHHL were used as controls.
Diabetes was diagnosed using Uristix and a level of above 6 mMol glucose/I was taken to indicate the presence of diabetes.

[4] = system: murine splenocytes; test: ConA mitogen-stimulated proliferation of murine splenocytes; assay type: cell-based, BALB/c mice; conditions: ConA 1 μg/ml, 100,000 spleen cells, 1 mM to 0.1 μM
Description: The concanavalin A (ConA) cell proliferation assay was used to assess the effect of homoserine lactone (HSL) compounds on T-cell activation and proliferation. Proliferation was assessed by the incorporation of [^3H]-thymidine into DNA. Eight-week-old female BALB/c mice were obtained from Harlan (Bicester, Oxon, UK) and given food and water ad libitum. Splenocyte suspensions were prepared by removing the spleens and placing them into. RPMI 1640 medium. The spleens were forced through 70-μm-pore-size wire gauzes using the plunger from a 5-ml syringe to produce a single cell suspension. The cells were pelleted by centrifugation, and erythrocytes were lysed with 0.017M Tris, 0.144M ammonium chloride buffer, pH 7.2. Leucocytes were washed twice with RPMI 1640 medium with 2% (vol/vol) foetal calf serum (FCS) and resuspended in complete cell culture medium (CTCM) consisting of RPMI 1640 medium with 5% FCS, 2 mM L-glutamine, and 5×10^−5 M 2-mercaptoethanol. […] After the addition of 25 μl of MicroScint-O (Packard) to each well the filters were counted with the Packard TopCount scintillation counter. […]
(§1) In the cell culture assays the number of cells used (mouse splenocytes and human PBMC) was initially optimised to 100,000 cells per well. The optimal dose of ConA of 1 μg/ml used in the cell proliferation assays was determined from ConA titration curves. […]

[5] = system: diabetes in NOD mice; test: In vivo effects of CSA, anti-TNFα and OdDHL in the diabetes model; conditions: OdDHL 30 mg/kg, 3 times per week for 4 weeks
Description: Dose regimes of Cyclosporin A, anti-TNFα antibody and OdDHL were compared in the diabetes model. NOD mice were dosed at 25 mg/kg on alternate days for 160 days following the methodology of Mori et al (Diabetologia (1986) 29: 244-247), the content of which is incorporated herein by reference, for the investigation of CSA, and Anti TNF at 12 mg per individual, 0.5 mg three times a week for 8 weeks in accordance with the method of Suk et al (J. Immunology (2001) 166: 4481-4489), the content of which is incorporated herein by reference, was used for TNFα. OdDHL was dosed at 30 mg/kg, 3 times per week for 4 weeks as above.

[6] = system: human PBMC; test: ConA mitogen-stimulated proliferation of human PBMC; assay type: cell-based; conditions: ConA 1 μg/ml, 100,000 PBMC
Description: Blood specimens were obtained with consent from healthy human volunteers. Human peripheral blood mononuclear cells (PBMC) were isolated from heparinised whole blood by buoyant density centrifugation over Histopaque 1077 (Sigma, Poole, UK) at 600 g for 20 minutes. PBMC harvested from the ‘buffy’ layers were washed twice with RPMI 1640 medium and resuspended in CTCM. HSL compounds were tested at similar dilutions as for murine splenocytes in 200 μl of CTCM, containing 1 μg/ml of ConA and 100,000 PBMC. Human PBMC were incubated for 48 h at 37° C. in 5% CO2-air, followed by pulsing with 0.25 μCi [^3H]-thymidine (see above). After a further incubation of 24 h cells were harvested onto fibreglass filters and then counted in the presence of MicroScint-O with the Packard TopCount.
Concanavalin induced cell proliferation of human peripheral blood mononuclear cells (PBMC) was tracked, as described in I above, by a measurement of counts per minute using the scintillation counter. The inhibitory effect of an HSL compound being tested on cell proliferation was indicated by a reduction in counts per minute. […]
as §1

[7] = Comparative assay performed in vivo (OdDHL vs CSA and dexamethasone); conditions: compared with CSA and dexamethasone
Excerpt: From this it is believed that a similar result will be achieved for insulitis.

[8] = system: murine spleen cells; conditions: Infection and Immunity, vol.66, no.1, January 1998; cited from earlier work

CCCCCCCCCC(=O)CC(=O)N[C@H]1CCOC1=O [OdDHL, N-(3-oxododecanoyl)-L-homoserine Lactone]
overt immune toxicity (CD3, CD4, CD8, CD19 splenocyte populations, FACScan, FIG. 12) ([1]; 3 times a week for 4 weeks): lack of overt immune toxicology | body weight gain of treated mice ([1]; dose regime of Example 5, vs non-treated littermates): gained weight identically to their non-treated littermates | inhibition of TNF-α production by LPS-stimulated adherent murine peritoneal macrophages [2]: inhibiting | incidence of diabetes ([3]; Week of Experiment 20, 30 mg/kg 3 times per week for 4 weeks): 0/11 | incidence of diabetes ([3]; Week of Experiment 30, 30 mg/kg 3 times per week for 4 weeks, week 30 of experiment): 5/20 | inhibition of splenocyte proliferation ([3H]-thymidine cpm, FIG. 6) [4]: inhibits splenocyte proliferation | in vivo action compared to reported data of Mori (CSA) and Suk (anti-TNF) [5]: more effective in vivo action than in vitro | inhibition of proliferation of human PBMC ([3H]-thymidine cpm, FIG. 7) [6]: inhibited proliferation | comparative performance in vivo [7]: performed better than CSA and dexamethasone | inhibition of concanavalin A mitogen stimulated proliferation of murine spleen cells [8]: inhibiting
